Measured values: patent EP3789378A1, “PIPERIDINES OR PIPERIDONES SUBSTITUTED WITH UREA AND HETEROARYL” (Grünenthal GmbH, priority 2019, dated 2021)

Each molecule was assayed against T1, h FPR2 (Homo sapiens, UniProt P25090) (assay: Agonistic activity in hFPR2-Aq-CHO cells (FLIPR Calcium 5 fluorescence assay)). Details: 11 point half log dilution, final assay concentration from 10µM.
T1 construct: expressed in transfected cells
T1 sequence (P25090 1-351): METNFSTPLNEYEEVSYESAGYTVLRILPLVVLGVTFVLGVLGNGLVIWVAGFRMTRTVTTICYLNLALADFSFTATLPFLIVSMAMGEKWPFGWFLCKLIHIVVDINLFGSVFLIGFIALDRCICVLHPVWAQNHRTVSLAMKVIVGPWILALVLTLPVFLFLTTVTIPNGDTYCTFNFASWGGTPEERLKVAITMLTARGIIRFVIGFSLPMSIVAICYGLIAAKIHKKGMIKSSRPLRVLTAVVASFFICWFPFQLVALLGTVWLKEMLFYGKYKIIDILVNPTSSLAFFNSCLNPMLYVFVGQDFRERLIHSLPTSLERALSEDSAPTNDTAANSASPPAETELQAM
Type: cell-based
Method in brief: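 EC50 reflects the compound-evoked rise in Calcium 5 fluorescence over basal, recorded for 5 min on FLIPR and compared with no-compound wells. Dye-loaded hFPR2-Aq-CHO cells received half-log dilutions from 10 µM to 100 pM final in pH 7.4 HBSS buffer.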
Molecule `O=C(Nc1ccc(Cl)cc1)NC1CC(=O)N(c2ccc(F)cc2)CC1c1ccc(Cl)cn1` (single isomer, unassigned) [Ex-15, 1-(4-chlorophenyl)-3-[5-(5-chloropyridin-2-yl)-1-(4-fluorophenyl)-2-oxopiperidin-4-yl]urea] has an EC50 of 7 nM. `Cc1cc(NC(=O)N[C@@H]2CCN(c3ccncn3)C[C@H]2c2ccc(Cl)cn2)sn1` (single isomer, unassigned) [Ex-16, trans-1-(5-chloro-1'-pyrimidin-4-yl-1',2',3',4',5',6'-hexahydro-[2,3']bipyridinyl-4'-yl)-3-(3-methyl-isothiazol-5-yl)-urea] showed an EC50 of 0.9 nM. `Cc1cc(CN2CC[C@@H](NC(=O)Nc3ccc(Cl)cc3)[C@H](c3ccc(Cl)cn3)C2)no1` (single isomer, unassigned) [Ex-22, trans-1-(4-chlorophenyl)-3-[3-(5-chloropyridin-2-yl)-1-[(5-methyl-1,2-oxazol-3-yl)methyl]piperidin-4-yl]urea] was tested, and the EC50 was 0.2 nM. With `COc1ccc([C@@H]2CN(Cc3cc(C)on3)CC[C@H]2NC(=O)Nc2ccc(Cl)cc2)nc1` (single isomer, unassigned) [Ex-29, trans-1-(4-chlorophenyl)-3-[3-(5-methoxypyridin-2-yl)-1-[(5-methyl-1,2-oxazol-3-yl)methyl]piperidin-4-yl]urea] the EC50 was 11 nM. Molecule `COc1ccc([C@@H]2CN(Cc3cc(C)on3)CC[C@H]2NC(=O)Nc2ccc(Cl)cc2)nc1` (single isomer, unassigned) [Ex-30, trans-1-(4-chlorophenyl)-3-[3-(5-methoxypyridin-2-yl)-1-[(5-methyl-1,2-oxazol-3-yl)methyl]piperidin-4-yl]urea] has an EC50 of 0.09 nM. With `COc1ccc([C@@H]2CN(CC(F)F)CC[C@H]2NC(=O)Nc2ccc(Cl)cc2)nc1` (single isomer, unassigned) [Ex-35, trans-1-(4-chlorophenyl)-3-[1-(2,2-difluoroethyl)-3-(5-methoxypyridin-2-yl)piperidin-4-yl]urea] the EC50 was 0.06 nM. `COc1ccc([C@@H]2CN(CC(F)F)CC[C@H]2NC(=O)Nc2ccc(Cl)cc2)nc1` (single isomer, unassigned) [Ex-36, trans-1-(4-chlorophenyl)-3-[1-(2,2-difluoroethyl)-3-(5-methoxypyridin-2-yl)piperidin-4-yl]urea] was tested, and the EC50 was 85 nM. With `COc1ccc([C@@H]2CN(Cc3cc(C(F)(F)F)on3)CC[C@H]2NC(=O)Nc2ccc(Cl)cc2)nc1` (single isomer, unassigned) [Ex-37, trans-1-(4-chlorophenyl)-3-[3-(5-methoxypyridin-2-yl)-1-{[5-(trifluoromethyl)-1,2-oxazol-3-yl]methyl}piperidin-4-yl]urea] the EC50 was 0.13 nM. For `COc1ccc([C@@H]2CN(Cc3cc(C(F)(F)F)on3)CC[C@H]2NC(=O)Nc2ccc(Cl)cc2)nc1` (single isomer, unassigned) [Ex-38, trans-1-(4-chlorophenyl)-3-[3-(5-methoxypyridin-2-yl)-1-{[5-(trifluoromethyl)-1,2-oxazol-3-yl]methyl}piperidin-4-yl]urea], the EC50 was 54 nM. `COc1ccc([C@@H]2CN(Cc3ccn(C)n3)CC[C@H]2NC(=O)Nc2ccc(Cl)cc2)nc1` (single isomer, unassigned) [Ex-39, trans-1-(4-chlorophenyl)-3-[3-(5-methoxypyridin-2-yl)-1-[(1-methyl-1H-pyrazol-3-yl)methyl]piperidin-4-yl]urea] showed an EC50 of 0.3 nM. Molecule `COc1ccc([C@@H]2CN(Cc3ccn(S(C)(=O)=O)n3)CC[C@H]2NC(=O)Nc2ccc(Cl)cc2)nc1` (single isomer, unassigned) [Ex-42, trans-1-(4-chlorophenyl)-3-[1-[(1-methanesulfonyl-1H-pyrazol-3-yl)methyl]-3-(5-methoxypyridin-2-yl)piperidin-4-yl]urea] has an EC50 of 1 nM. For `COc1ccc([C@@H]2CN(Cc3ccn(S(C)(=O)=O)n3)CC[C@H]2NC(=O)Nc2ccc(Cl)cc2)nc1` (single isomer, unassigned) [Ex-43, trans-1-(4-chlorophenyl)-3-[1-[(1-methanesulfonyl-1H-pyrazol-3-yl)methyl]-3-(5-methoxypyridin-2-yl)piperidin-4-yl]urea], the EC50 was 0.03 nM.
